Measured values taken from patent publication US9000048B2, “Fluoropolymer-based emulsions for the intravenous delivery of fluorinated volatile anesthetics” (Wisconsin Alumni Research Foundation, priority 2006, dated 2015).
In brackets after ≈: the same amount, converted by molar mass.

Assays:
[1] = in vivo; cited from earlier work
[2] = in vivo; cited from earlier work; remark: listed apart in the source
[3] = Solubility of perfluorotridecane in sevoflurane; assay type: physicochemical; settings: organic solvent or mixture, read-out: maximum solubility of perfluorotridecane in sevoflurane
Source text: If intercalation of perfluorotridecane between the perfluorocarbon blocks of F13M5 is the reason that phase separation occurred with sevoflurane, the same effect might be expected to happen when perfluorotridecane is used as an additive to stabilize emulsions of either FC-72 and perfluorooctyl bromide. […] The difference in emulsion stability is likely due to the different solubility of perfluorotridecane in the three fluorinated compounds. […] It is likely that the limited solubility of perfluorotridecane in sevoflurane led to its preferential adsorption at the interface, rather than at the center of the droplet. The greater solubility of perfluorotridecane in the other solvents allowed it to more easily reside in the center of the droplet and act truly as a secondary oil additive.

[4] = Emulsion droplet sizing and stability by dynamic light scattering and visual phase separation; assay type: physicochemical
Procedure: The emulsions were sized by dynamic light scattering prior to use. For these measurements, the emulsions were mixed by inversion of the centrifuge tube to eliminate inhomogeneity due to either flocculation or sedimentation. The emulsions were then diluted by a factor of 300 by adding 10 μL of the emulsion to 2.990 mL of 0.9% NaCl. Sizing was done by dynamic light scattering (NICOMP 380 ZLS, Particle Sizing Systems, Santa Barbara, Calif.) with a 639 nm laser at a scattering angle of 90°. Each sample was run for 15 min and all numbers are reported as Gaussian volume weighted. The emulsions were only used if the average diameter was less than 350 nm. This cutoff was established to ensure consistent physical characteristics of the emulsion and to prevent acute toxicity that can develop with increased particle size.^15 Additionally, the emulsion was filtered through a 0.45 μm nylon syringe filter. The final nano-emulsions are milky-white.
As a typical example, sevoflurane (Abbott Labs, N. Chicago, Ill., 3.4 mL) and perfluorooctyl bromide (SynQuest Laboratories, Inc., Alachua, Fla., 1.7 mL) were added to an aqueous 0.9% NaCl solution (11.9 mL) of F13M5 (298 mg, 25 mg/mL), for a total volume of 17 mL. The two-phase mixture was homogenized with a low energy mixer (Power Gen 500, Fisher Scientific, Hampton, N.H.) for 1 min at 21000 rpm at room temperature. The crude emulsion was further homogenized under high pressure (5000 psi, 1 min) using a Microfluidizer (model 110 S, Microfluidics Corp., Newton, Mass.) with the temperature maintained at 20.0° C. with a cooling bath. The product emulsions were stored in 15 mL sterile centrifuge tubes (Corning Inc., Corning, N.Y.) at 4° C. until use. All emulsions were prepared in this same manner with the requisite percentages of each component as necessary. Intralipid emulsions were prepared by adding sevoflurane to Intralipid (20%, Fresenius Kabi, Uppsala, Sweden) and then homogenizing and microfluidizing as above. […]

[5] = cited from earlier work
[6] = cited from earlier work; remark: listed apart in the source

Molecule: FC(F)(F)C(F)(F)C(F)(F)C(F)(F)/C=C/C(F)(F)C(F)(F)C(F)(F)C(F)(F)F [bis-perfluorobutyl ethylene]
- circulatory half-time / half life in the body [1]: 170 h

Molecule: CC(C)c1cccc(C(C)C)c1O [propofol]
- therapeutic index, previously published values [2]: 3.1

Molecule: FC(F)(F)C(F)(F)C(F)(F)C(F)(F)C(F)(F)C(F)(F)C(F)(F)C(F)(F)C(F)(F)C(F)(F)C(F)(F)C(F)(F)C(F)(F)F [perfluorotridecane]
- solubility [3]: 78 mg/mL (≈ 113 mM)

Molecule: FC(F)(F)C(F)(F)C(F)(F)C(F)(F)C(F)(F)C(F)(F)C(F)(F)C(F)(F)Br [perfluorooctyl bromide]
- circulatory half-time / half life in the body [1]: four
- ripening with different stabilizing additives [4]: ripen similarly
- droplet size / Ostwald ripening with perfluorotridecane as the additive ([4]; 20% v/v primary oil, perfluorotridecane additive, 1.5% w/v F13M5): the size stabilized and Ostwald ripening appeared to be stopped

Molecule: FC(F)(Cl)C(F)(F)C(F)(F)C(F)(F)C(F)(F)C(F)(F)C(F)(F)C(F)(F)Cl [perfluorodichlorooctane]
- circulatory half-time / half life in the body [1]: 170 h

Molecule: FCOC(C(F)(F)F)C(F)(F)F [sevoflurane]
- maximum solubility of sevoflurane in 30% Intralipid ([5]; 30% Intralipid, gas equilibration): 3.46 % v/v
- maximum amount of sevoflurane that can be stably emulsified in Intralipid ([5]; Intralipid): 3.5 % v/v
- maximum of sevoflurane emulsified in Intralipid ([5]; in volume, non-fluorinated lipids (Intralipid)): 3.6%
- water solubility [6]: 6 mM (≈ 1200 µg/mL)

Molecule: CCCC(C)C1(CC)C(=O)NC(=S)NC1=O (centres unmarked) [thiopental]
- therapeutic index, previously published values [2]: 2.2

Molecule: perfluoro(methyldecalin)
- circulatory half-time / half life in the body [1]: 264 h

Molecule: FC1(F)C(F)(F)C(F)(F)C2(F)C(F)(F)C(F)(F)C(F)(F)C(F)(F)C2(F)C1(F)F (centres unmarked) [perfluorodecalin]
- ripening with different stabilizing additives [4]: ripen similarly
